For one experiment, the target named is LCK (Homo sapiens, UniProt P06239). Nature of the experiment: SelectScreen kinase profiling, LCK. To be noted: 1 μM of 1938, 50 μM ATP. It counts as biochemical. On the procedure:
133 protein kinases and 7 lipid kinases were counterscreened, with […] used at 1 μM, using the Adapta, Lantha and Z-LYTE assays (SelectScreen Kinase Profiling Service; Thermofisher—experimental details of these assays can be found here: https://www.thermofisher.com/uk/en/home/industrial/pharma-biopharma/drug-discovery-development/target-and-lead-identification-and-validation/kinasebiology/kinase-activity-assays.html. The tree representation in KinMap generated courtesy of Cell Signaling Technology, Inc. (www.cellsignal.com). mTORC1 (mTOR/RAPTOR/LST8) protein complex and ATM kinase and substrates were produced as previously described (Anandapadamanaban, M. et al. Science (New York, NY 366, 203-210 (2019); Baretic, D. et al. Sci Adv 3, e1700933 (2017). Screening of 1938 was conducted using SuperSep Phos-Tag 50 μmol/l 100×100×6.6 mm 17-well (192-18001/199-18011) gels. For ATM assays, 100 nM ATM was incubated for 30 min at 30° C. with 5 μM GST-p53 and 1 mM ATP, in the absence or presence of 200 μM 1938 in ATM Kinase Buffer (50 mM HEPES pH 7.5, 100 mM NaCl, 10% glycerol, 2 mM […], 5 mM MgCl2). […] Gels were then stained using InstantBlue™ Coomassie stain, and then quantified using BioRad Image Lab Software. […]

Experiment [1] relates to PI3Kα-WT and PI3Kα-KO MEFs. Description: Mass spectrometry-based phosphoproteomics in MEFs. It counts as cell-based, mouse. The conditions noted are these: for differentially phosphorylated peptides/sites: PI3Kα-WT MEFs. On the procedure: The inventors next investigated the impact of 1938 on cell signalling in an unbiased manner using phosphoproteomics. […] The inventors quantified 10,611 phosphosites from 3,093 proteins of which 9100, 1420 and 91 were pSer, pThr and pTyr residues, respectively (FIG. 16/Extended Data FIG. 8a). […] Compared to vehicle-treated cells, insulin treatment of PI3Kα-WT MEFs induced differential phosphorylation of 11 and 18 sites at 15 min and 4 h, respectively (FIG. 16/Extended Data FIG. 8c). […] Furthermore, approximately half of the 1938-controlled phosphosites have been previously reported (in PhosphoSitePlus) to be regulated by insulin, IGF-1, PI3K inhibition or AKT inhibition, with some linked to regulation by mTOR or PDK1 (FIG. 3gi,ii).
PI3Kα-WT and PI3Kα-KO MEFs, grown in 15 cm dishes, were serum-starved overnight in DMEM with 1% penicillin-streptomycin and stimulated by the addition of 0.05% DMSO, […] 1938 in final 0.05% DMSO or 100 nM insulin (Sigma, 15016) for 15 min or 4 h. Cells were lysed in […] urea lysis buffer [50 mM triethylammonium bicarbonate, 8 M urea, cOmplete™, EDTA-free protease inhibitor cocktail (1:50 dilution) (Roche, 11873580001), 1 PhosSTOP tablet (Roche, 4906845001), 1 mM sodium orthovanadate] and lysates sonicated until clear for ˜10 min with cooling breaks on ice. Protein concentration was measured using a BCA protein assay (Pierce #23227). 300 μg of protein was reduced with 5 mM Tris(2-carboxyethyl)phosphine hydrochloride (Sigma, C4706) at 37° C. for 20 min and alkylated using 10 mM 2-chloroacetamide (Sigma, 22790) for 20 min at room temperature in the dark. Proteins were digested with LysC for 3.5 h at 30° C. […] Fifty percent of each sample was analysed as 10 μl injections. […] Precursor ions were measured in a data-dependent mode in the orbitrap analyser at a resolution of 70,000 and a target value of 3e6 ions. The ten most intense ions from each MS1 scan were isolated, fragmented in the HCD cell, and measured in the Orbitrap at a resolution of 17,500. […]

Sequence of LCK (P06239 whole entry): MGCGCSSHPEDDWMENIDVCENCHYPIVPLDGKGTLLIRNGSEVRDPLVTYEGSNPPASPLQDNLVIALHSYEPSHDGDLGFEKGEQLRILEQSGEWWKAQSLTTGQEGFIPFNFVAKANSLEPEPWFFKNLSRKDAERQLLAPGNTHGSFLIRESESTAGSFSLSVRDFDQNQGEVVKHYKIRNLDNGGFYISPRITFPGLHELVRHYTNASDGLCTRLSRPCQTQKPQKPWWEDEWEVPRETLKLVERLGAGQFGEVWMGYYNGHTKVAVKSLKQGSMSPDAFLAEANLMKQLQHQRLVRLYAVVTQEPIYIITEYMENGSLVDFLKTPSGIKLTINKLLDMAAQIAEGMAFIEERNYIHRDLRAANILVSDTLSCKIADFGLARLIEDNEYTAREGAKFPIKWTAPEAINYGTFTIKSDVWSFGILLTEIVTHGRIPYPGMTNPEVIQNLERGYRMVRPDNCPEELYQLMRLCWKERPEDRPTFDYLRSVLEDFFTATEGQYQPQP

In the case of `CCN1CCN(c2ccc(Nc3cc(Nc4cccc5c4N(C(C)=O)CC5)ccn3)cc2)CC1` [Example 1938], the “inhibition of LCK” value against LCK amounted to 58%. Moreover, the “signalling impact in PI3Kα-KO MEFs” value in experiment [1] (PI3Kα-KO MEFs) is “little signalling impact”. The differentially phosphorylated peptides/sites in experiment [1] (15 min treatment) is given as 27; in experiment [1] (4 h treatment), 50.

For the origin of these results see patent US20250263404A1, “AMINOPYRIDINES AS ACTIVATORS OF PI3 KINASE” (UCL Business Ltd, priority 2021, published 2025).
